From patent US20140179519A1, “N-THIO-ANTHRANILAMIDE COMPOUNDS AND THEIR USE AS PESTICIDES” (BASF SE, priority 2011, published 2014)

Key:
[1] = test system: Orchid thrips (Dichromothrips corbetti); assay: CE.1 Orchid thrips floral-immersion test, comparison with comparative compounds; assay type: in vivo; details: for % activity (mortality of Orchid thrips in %, vs. untreated control): floral immersion, 72 hours after treatment
Experimental: (§1) The activity summarized in the tables hereinbelow are given as percentage of mortality in comparison with untreated control
Dichromothrips corbetti adults used for bioassay were obtained from a colony maintained continuously under laboratory conditions. For testing purposes, the test compound is diluted in a 1:1 mixture of acetone:water (vol:vol), plus 0.01% vol/vol Alkamuls® EL 620 surfactant.
Thrips potency of each compound was evaluated by using a floral-immersion technique. Plastic petri dishes were used as test arenas. All petals of individual, intact orchid flowers were dipped into treatment solution and allowed to dry. Treated flowers were placed into individual petri dishes along with about 20 adult thrips. The petri dishes were then covered with lids. All test arenas were held under continuous light and a temperature of about 28° C. for duration of the assay. After 3 days, the numbers of live thrips were counted on each flower, and along inner walls of each petri dish. The percent mortality was recorded 72 hours after treatment.

[2] = test system: Rice green leafhopper (Nephotettix virescens); assay: CE.2 Rice green leafhopper spray test on rice seedlings, comparison with comparative compound; assay type: in vivo; details: for % activity (mortality of Rice green leafhopper in %, vs. untreated control): sprayed rice seedlings, after 72 hours
Experimental: as §1
Rice seedlings were cleaned and washed 24 hours before spraying. The active compounds were formulated in 50:50 acetone:water (vol:vol), and 0.1% vol/vol surfactant (EL 620) was added. Potted rice seedlings were sprayed with 5 ml test solution, air dried, placed in cages and inoculated with 10 adults. Treated rice plants were kept at about 28-29° C. and relative humidity of about 50-60%. Percent mortality was recorded after 72 hours.

[3] = percent mortality 72 hours after treatment

Cc1cc(Cl)cc(C(=O)N=S(C)C)c1NC(=O)c1cc(C(F)F)nn1-c1ncccc1Cl [Compound 4]
% activity (mortality of Orchid thrips in %, vs. untreated control) ([1]; 10 ppm active ingredient): 95% | % activity (mortality of Orchid thrips in %, vs. untreated control) ([1]; 100 ppm active ingredient): 100% | % activity (mortality of Orchid thrips in %, vs. untreated control) ([1]; 300 ppm active ingredient): 100% | activity against Orchid thrips in comparison with comparative compound CC-1 [1, 3]: superior activity

Cc1cc(Cl)cc(C(=O)N=S(C(C)C)C(C)C)c1NC(=O)c1cc(C(F)F)nn1-c1ncccc1Cl [Compound 25]
% activity (mortality of Orchid thrips in %, vs. untreated control) ([1]; 10 ppm active ingredient): 95% | % activity (mortality of Orchid thrips in %, vs. untreated control) ([1]; 100 ppm active ingredient): 100% | % activity (mortality of Orchid thrips in %, vs. untreated control) ([1]; 300 ppm active ingredient): 100% | activity against Orchid thrips in comparison with comparative compound CC-2 [1, 3]: superior activity | % activity (mortality of Rice green leafhopper in %, vs. untreated control) ([2]; 100 ppm active ingredient): 50% | % activity (mortality of Rice green leafhopper in %, vs. untreated control) ([2]; 300 ppm active ingredient): 100% | % activity (mortality of Rice green leafhopper in %, vs. untreated control) ([2]; 500 ppm active ingredient): 100% | activity against Rice green leafhopper in comparison with comparative compound CC-2 ([2]; percent mortality after 72 hours): superior activity
